Records with an inconclusive call do not appear. Activity calls are given as the source filed them. No rule for the calls is given here.
What follows are compounds tested on Chlamydomonas reinhardtii, Nile Red lipid fluorescence, 72 h (assay: algal triacylglycerol accumulation inducers, dose response, qHTS, Chlamydomonas reinhardtii (AID 1159536)).

With `CCOc1ccccc1C(=O)NC1CC1` as the compound, how does the EC50 read?
The EC50 was 26.5 µM (inactive).

Which EC50 does the source give for `Clc1ccc(OCCOCCN2CCOCC2)c(Br)c1` here?
Its EC50 is 7.9 µM.

How did the EC50 turn out when `CCN(Cc1ccccc1)C(=O)C1CCN(CCCc2ccccc2)CC1` was run?
Its EC50 is 1.3 µM.

For `CC1(C)CC(NC(=O)Cc2ccccc2[N+](=O)[O-])CC(C)(C)N1`, which EC50 is on record?
Its EC50 is 10.3 µM (inactive).

For `C=CCc1ccccc1OCC(O)CN(C)C1CCCCC1` (stereo not drawn), which EC50 is on record?
Its EC50 is 4.88 µM.

With `CN(Cc1ccc([N+](=O)[O-])cc1)C1CCCCC1` as the compound, how does the EC50 read?
Its EC50 is 0.0878 µM.

How did the EC50 turn out when `Fc1ccc(N2CCN(Cc3ccsc3)CC2)cc1` was run?
The EC50 was 8.16 µM.

Which EC50 does the source give for `OC(CNCCc1ccccc1)c1ccccc1` (stereo not drawn) here?
The EC50 was 6.91 µM.

For `c1ccc(N2CCN(Cc3ccsc3)CC2)cc1`, which EC50 is on record?
Its EC50 is 0.652 µM.

How did the EC50 turn out when `CCN(Cc1ccccc1)C(=O)C1CCN(Cc2ccccc2F)CC1` was run?
Its EC50 is 1.32 µM.

Which EC50 does the source give for `Cc1cc(C=O)c(C)n1-c1ccc(Br)cc1F` here?
Its EC50 is 12 µM (inactive).

Which EC50 does the source give for `Cc1ccc(OCCCN2CCOCC2)c(C)c1` here?
Its EC50 is 10.3 µM.

For `CN1CCN(CCCOc2ccc(Br)cc2)CC1`, which EC50 is on record?
Its EC50 is 9.74 µM.

Which EC50 does the source give for `C=CCN1C(=O)C(=O)c2cc(Br)ccc21` here?
The EC50 was 5.89 µM.

For `O=C(NCCc1ccc(Cl)cc1)C(=O)Nc1nccs1`, which EC50 is on record?
Its EC50 is 10.2 µM (inactive).

With `CCC(C)c1ccccc1OCCOCCN1CCOCC1` (stereo not drawn) as the compound, how does the EC50 read?
The EC50 was 13.1 µM.

`Cc1ccc(OCCCCN2CCOCC2)cc1` was tested. Which EC50 did it give?
The EC50 was 4.2 µM.

With `COc1cc(C)c(CN2CCCN(C)CC2)cc1C` as the compound, how does the EC50 read?
The EC50 was 10.3 µM.

With `Oc1ccc(Br)cc1CN1CCN(CC2CC3C=CC2C3)CC1` (stereo not drawn) as the compound, how does the EC50 read?
Its EC50 is 9.95 µM.

With `Cc1cc(Cl)cc(C)c1OCCn1ccnc1` as the compound, how does the EC50 read?
Its EC50 is 1.29 µM.

`CN(c1ccc(C(=O)NC2CCCCCC2)cc1)S(=O)(=O)c1ccccc1` was tested. Which EC50 did it give?
The EC50 was 4.98 µM.

For `Nc1ccc(F)cc1C(=O)c1ccccc1`, which EC50 is on record?
The EC50 was 7.05 µM.

How did the EC50 turn out when `Cc1ccc(NC(=O)CSc2nnc(-c3ccc(Cl)cc3Cl)n2N)c(C)c1` was run?
The EC50 was 2.46 µM (inactive).

How did the EC50 turn out when `CCOc1ccc(CN2CCN(c3ccc([N+](=O)[O-])cc3)CC2)cc1` was run?
The EC50 was 2.64 µM.

For `COc1cccc(N2CCN(C3CCCC(C)C3)CC2)c1` (stereo not drawn), which EC50 is on record?
The EC50 was 6.34 µM.

For `CN(CC(O)COc1ccc(F)cc1)C1CCCCC1` (stereo not drawn), which EC50 is on record?
The EC50 was 11.2 µM.

How did the EC50 turn out when `O=C(O)C1C2C=CC(O2)C1C(=O)Nc1ccccc1F` (stereo not drawn) was run?
The EC50 was 14.8 µM (inactive).

For `CCC(CC)C(=O)Nc1ccc(C(=O)Nc2nccs2)cc1`, which EC50 is on record?
The EC50 was 1.83 µM (inactive).

How did the EC50 turn out when `O=[N+]([O-])c1ccc(CN2CCN(Cc3cc(Br)ccc3O)CC2)cc1` was run?
The EC50 was 2.47 µM.

`Cc1ccc2nc(SCc3ccccc3)c(C=O)c(=O)n2c1` was tested. Which EC50 did it give?
Its EC50 is 4.11 µM.

`Cc1cc(I)ccc1S(=O)(=O)NCCCN1CCOCC1` was tested. Which EC50 did it give?
The EC50 was 1.28 µM.

With `COc1ccccc1N1CCN(C2CCN(CC3CC4C=CC3C4)CC2)CC1` (stereo not drawn) as the compound, how does the EC50 read?
Its EC50 is 10.5 µM.

How did the EC50 turn out when `Cc1ccc(C)c(N2CCN(C3CCCCCC3)CC2)c1` was run?
The EC50 was 10 µM.

For `C/C(=C\c1ccccc1)CN(C)CCN(C)C`, which EC50 is on record?
The EC50 was 2.65 µM.

`c1ccc(CCN2CCN(c3ccccc3)CC2)cc1` was tested. Which EC50 did it give?
Its EC50 is 0.157 µM.

`CCOc1ccc(CN2CCN(c3ccc(F)cc3)CC2)cc1` was tested. Which EC50 did it give?
The EC50 was 0.241 µM.

How did the EC50 turn out when `COc1ccc(CN2CCN(Cc3ccc([N+](=O)[O-])cc3)CC2)cc1OC` was run?
Its EC50 is 2.49 µM.

`COc1cccc(N2CCN(CC3CC4C=CC3C4)CC2)c1` (stereo not drawn) was tested. Which EC50 did it give?
The EC50 was 1.26 µM.

Which EC50 does the source give for `CCN1CCN(C(=O)c2ccc(C(C)(C)C)cc2)CC1` here?
Its EC50 is 1.4 µM.

How did the EC50 turn out when `O=C(Nc1ccc(Cc2ccncc2)cc1)c1cc(Br)ccc1Cl` was run?
Its EC50 is 2.29 µM (inactive).

How did the EC50 turn out when `COc1ccccc1N1CCN(Cc2ccc(Cl)cc2)CC1` was run?
Its EC50 is 1.61 µM.

With `CN1CCN(Cc2cccc(Oc3ccccc3)c2)CC1` as the compound, how does the EC50 read?
The EC50 was 9.98 µM.

How did the EC50 turn out when `Cc1cc(C)c(S(=O)(=O)NCCCN2CCOCC2)cc1Br` was run?
The EC50 was 0.769 µM.

How did the EC50 turn out when `Cc1cc(C(C)(C)C)ccc1OCCOCCN1CCN(C)CC1` was run?
The EC50 was 0.566 µM (inactive).

`Clc1ccc(Cl)c(OCCCCN2CCNCC2)c1` was tested. Which EC50 did it give?
Its EC50 is 5.34 µM.

`O=[N+]([O-])c1ccc(CN2CCN(Cc3ccccc3)CC2)cc1` was tested. Which EC50 did it give?
Its EC50 is 6.26 µM.

How did the EC50 turn out when `NC(=O)c1cc(-c2ccccc2)sc1NC(=O)c1ccc(OC(F)F)cc1` was run?
Its EC50 is 0.155 µM.

How did the EC50 turn out when `Cc1cc(C)c(C)c(OCCCCN2CCOCC2)c1` was run?
Its EC50 is 15.1 µM.

How did the EC50 turn out when `Cc1cc(OCCN2CCN(C)CC2)ccc1C(C)C` was run?
The EC50 was 2.56 µM.

How did the EC50 turn out when `Cc1ccc(NC(=O)CC(C)C)c(NC(=O)CC(C)C)c1` was run?
The EC50 was 7.89 µM (inactive).

With `CC(=O)Nc1ccc(S(=O)(=O)Nc2cc([N+](=O)[O-])ccc2C)cc1` as the compound, how does the EC50 read?
The EC50 was 3.21 µM (inactive).

With `O=[N+]([O-])c1cccc(CNC2CCCCCC2)c1` as the compound, how does the EC50 read?
Its EC50 is 1.1 µM.

Which EC50 does the source give for `CCOc1ccc(CN2CCN(c3ccccc3C)CC2)cc1` here?
Its EC50 is 1.3 µM.

For `COc1cc2c(cc1OC)CN(Cc1ccc(F)cc1)CC2`, which EC50 is on record?
The EC50 was 9.96 µM.

For `Clc1ccc(OCCCN2CCOCC2)c(Br)c1`, which EC50 is on record?
Its EC50 is 10.5 µM.

For `CCC(C)c1ccccc1OCCCN1CCOCC1` (stereo not drawn), which EC50 is on record?
Its EC50 is 3.72 µM.

How did the EC50 turn out when `CC1CCCCN1S(=O)(=O)c1ccc(NC(=O)c2ccc(Cl)cc2Cl)cc1` (stereo not drawn) was run?
Its EC50 is 2.56 µM (inactive).

With `Cc1cccc(-c2cc(NC(=O)c3ccc([N+](=O)[O-])cc3)n[nH]2)c1` as the compound, how does the EC50 read?
The EC50 was 6.94 µM.

`Clc1ccc(OCCCCN2CCCC2)c(Br)c1` was tested. Which EC50 did it give?
The EC50 was 2.55 µM.

Which EC50 does the source give for `O=C(Nc1ccc([N+](=O)[O-])cc1)c1cccc(Cl)c1Cl` here?
The EC50 was 2.35 µM (inactive).

How did the EC50 turn out when `CCSc1ccc(C(=O)Nc2ccc(Cc3ccncc3)cc2)cc1[N+](=O)[O-]` was run?
The EC50 was 2.64 µM.

For `CC(=O)c1nc2cc([N+](=O)[O-])ccc2n1Cc1ccccc1`, which EC50 is on record?
The EC50 was 10 µM (inactive).

Which EC50 does the source give for `CN1CC=C(CNc2cccc3c2CCCC3)CC1` here?
Its EC50 is 2.58 µM.
